Measurements from patent US9457029B2, “Treatment of genotyped diabetic patients with DPP-IV inhibitors such as linagliptin” (Boehringer Ingelheim International GmbH, priority 2009, dated 2016).
Blank lines part the entries; values can stand above or below the molecule they belong to.

Key:
[1] = system: the diabetic; conditions: metformin on its own; cited from earlier work
[2] = system: Japanese patients with type 2 diabetes mellitus; conditions: VB 0.2 mg tid
[3] = system: patients with type 2 diabetes mellitus and insufficient glycemic control; type: in vivo, human
Procedure: A multi-center, 24-week, randomized, double-blind, placebo-controlled, parallel group study investigates the efficacy and safety of initial combination therapy with the DPP-4 inhibitor linagliptin (LI) and pioglitazone (PIO). […] Mean baseline characteristics (HbA1c 8.6%; fasting plasma glucose [FPG] 190 mg/dL; age 57.5 yrs; BMI 29.0 kg/m2) are similar between the groups. […] After 24 weeks of treatment, the adjusted mean change in HbA1c for the patients in the LI+ PIO group (full analysis set, last observation carried forward) is −1.06% (standard error (SE)±0.06). The difference in the adjusted mean HbA1c for the LI+ PIO group compared with PBO+PIO is −0.51% (p<0.0001; 95% confidence interval (CI), −0.71, −0.30). […] The proportion of patients that experienced at least one adverse event (AE) is similar for both LI+ PIO and PBO+PIO groups (136, 52.5% vs. 53.1%, respectively). Hypoglycemia is rare, occurring in 3 patients (1.2%) in the LI+ PIO group and none in the PBO+PIO group. All hypoglycemic events are of mild intensity.

[4] = system: inadequately controlled, metformin-treated type 2 diabetic patients; assay: 12-week randomized, double-blind study of BI 1356 add-on to metformin vs placebo or open label glimepiride; type: in vivo, human
Procedure: Efficacy and safety of BI 1356 (1, 5, or 10 mg qd), a potent and selective dipeptidyl peptidase-4 (DPP-4) inhibitor, was examined in inadequately controlled, metformin-treated (MET, ≧1 g daily) type 2 diabetic patients (T2DM; HbA1c at baseline 7.5-10.0%). Effects were compared to add-on of placebo (PBO) or of open label glimepiride (GLIM; 1 to 3 mg qd) in a 12-week randomized, double-blind study. Antidiabetic medication other than metformin was washed out for 6 weeks (34.7% of the patients).
The primary endpoint was change from baseline in HbA1c, adjusted for prior antidiabetic medication. 333 patients (mean baseline HbA1c 8.3%; fasting plasma glucose [FPG] 185 mg/dL) were randomized to BI 1356, PBO or open-label GLIM. […] Reductions in FPG from baseline to Week 12 with BI 1356 were statistically significant (1 mg, −19 mg/dL; 5 mg, −35 mg/dL; 10 mg, −30 mg/dL). […] For this dose, >80% DPP-4 inhibition at trough in >80% of the patients at week 12 was achieved.
In total, 106 patients (43.1%) experienced adverse events (AEs) with similar incidences across all treatments. Most frequently reported episodes were nasopharyngitis (7.5%), diarrhoea (3.3%), and nausea (3.0%). […] Ten patients (3.7%) experienced serious AEs but none of these events were considered drug-related.

[5] = 5 mg LI plus 30 mg PIO qd or 30 mg PIO plus placebo qd, 24 weeks

SMILES: CN(C)C(=N)N=C(N)N [metformin]
- average improvement in the HbA1c value [1]: 1.0-1.5%

SMILES: OCC(CO)N[C@H]1C[C@](O)(CO)[C@@H](O)[C@H](O)[C@H]1O [VB, voglibose, reference compound]
- proportion of patients whose HbA1c level lowered by ≧0.5% ([2]; 26 weeks): 37.7%
- proportion of patients achieving HbA1c<7.0% ([2]; after 26 weeks): 22.2%

- hypoglycemia, number of patients ([3]; in vivo): none
SMILES: CCc1ccc(CCOc2ccc(CC3SC(=O)NC3=O)cc2)nc1 (stereo not drawn) [PBO+PIO, pioglitazone]
- patients achieving a reduction in HbA1c of ≧0.5% [3, 5]: 50.8%
- patients achieving a target HbA1c of <7% [3, 5]: 30.5%
- proportion of patients that experienced at least one adverse event (AE) ([3]; in vivo): 53.1%

- drug-related hypoglycaemia, number of patients ([4]; GLIM 1 to 3 mg qd add-on to metformin, 12 weeks): 3 patients
SMILES: CCC1=C(C)CN(C(=O)NCCc2ccc(S(=O)(=O)NC(=O)N[C@H]3CC[C@H](C)CC3)cc2)C1=O [GLIM, glimepiride, reference compound]
- mean PBO corrected reduction in HbA1c ([4]; open label GLIM 1 to 3 mg qd add-on to metformin, Week 12): −0.90%
